Data published in US20250230193A1, “CYCLIC COMPOUND HAVING SELECTIVE KRAS INHIBITORY EFFECT ON HRAS AND NRAS” (CHUGAI SEIYAKU KABUSHIKI KAISHA, priority 2022, published 2025).

Columns and labels:
[1] = biological target: GDP-bound NRAS wild-type protein (Homo sapiens, UniProt P01111); assay: Binding to NRAS by surface plasmon resonance (SPR), Single Cycle Kinetics; details: SPR; KD ratio class
[2] = biological target: GDP-bound HRAS wild-type protein (Homo sapiens, UniProt P01112); assay: Binding to HRAS by surface plasmon resonance (SPR), Single Cycle Kinetics; details: SPR; KD ratio class
[3] = test system: human lung cancer strain NCI-H441; assay: cells; details: NCI-H441, 96 h, read-out: NCI-H441 IC50 (nM)

Chain of GDP-bound NRAS wild-type protein (P01111 whole entry): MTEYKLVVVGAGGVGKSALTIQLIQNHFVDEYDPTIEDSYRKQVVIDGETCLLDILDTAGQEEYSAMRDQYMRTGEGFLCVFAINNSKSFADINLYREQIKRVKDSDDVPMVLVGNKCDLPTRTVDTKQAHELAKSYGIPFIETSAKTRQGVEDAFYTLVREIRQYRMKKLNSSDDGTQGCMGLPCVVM
Chain of GDP-bound HRAS wild-type protein (P01112 whole entry): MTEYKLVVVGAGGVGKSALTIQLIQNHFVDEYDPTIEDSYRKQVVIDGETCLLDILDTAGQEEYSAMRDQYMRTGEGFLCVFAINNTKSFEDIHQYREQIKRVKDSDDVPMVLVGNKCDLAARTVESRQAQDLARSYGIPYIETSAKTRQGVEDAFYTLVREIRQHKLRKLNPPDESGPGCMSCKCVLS

| SMILES | IC50 [3] | NRAS/KRAS (ratio of KD value for GDP-bound NRAS wild-type protein to KD value for KRAS) [1] | HRAS/KRAS (ratio of KD value for GDP-bound HRAS wild-type protein to KD value for KRAS) [2] |
| --- | --- | --- | --- |
| CCO[C@@H]1C[C@H]2C(=O)NC3(CCC3)C(=O)N(C)[C@@H](C(CC)CC)C(=O)N(C)[C@H](C)CC(=O)N(C)[C@@H](CC3CC3)C(=O)N[C@@H]([C@@H](C)CC)C(=O)N(C)CC(=O)N(C)[C@H]3C/C=C\CCN(C3=O)[C@@H](Cc3ccc(F)cc3C)C(=O)N(C)CC(=O)N[C@@H](CCc3cc(F)c(C(F)(F)F)c(F)c3)C(=O)N2C1 [PP1520] | 575 nM | A (a compound having 10 or more and less than 20 is denoted as A) | A (a compound having 10 or more and less than 20 is denoted as A) |
| CCO[C@@H]1C[C@H]2C(=O)NC3(CCC3)C(=O)N(C)[C@@H](C(CC)CC)C(=O)N(C)[C@H](C)CC(=O)N(C)[C@@H](CC3CC3)C(=O)N[C@@H]([C@@H](C)CC)C(=O)N(C)CC(=O)N(C)[C@H]3C/C=C\CCN(C3=O)[C@@H](Cc3ccc(F)cc3)C(=O)N(C)CC(=O)N[C@@H](CCc3cc(F)c(C(F)(F)F)c(F)c3)C(=O)N2C1 [PP1521] | 173 nM | A (a compound having 10 or more and less than 20 is denoted as A) | B (a compound having 3 or more and less than 10 is denoted as B) |
| CCO[C@@H]1C[C@H]2C(=O)NC3(CCC3)C(=O)N(C)[C@@H](C(CC)CC)C(=O)N(C)[C@H](C)CC(=O)N(C)[C@@H](CC3CCCC3)C(=O)N[C@@H]([C@@H](C)CC)C(=O)N(C)CC(=O)N(C)[C@H]3C/C=C\CCN(C3=O)[C@@H](Cc3ccc(F)cc3C)C(=O)N(C)CC(=O)N[C@@H](CCc3cc(F)c(C(F)(F)F)c(F)c3)C(=O)N2C1 [PP1522] | 567 nM | A (a compound having 10 or more and less than 20 is denoted as A) | A (a compound having 10 or more and less than 20 is denoted as A) |
| CCO[C@@H]1C[C@H]2C(=O)NC3(CCC3)C(=O)N(C)[C@@H](C(CC)CC)C(=O)N(C)[C@H](C)CC(=O)N(C)[C@@H](CC(C)C)C(=O)N[C@@H]([C@@H](C)CC)C(=O)N(C)CC(=O)N(C)[C@H]3C/C=C\CCN(C3=O)[C@@H](Cc3ccc(F)cc3C)C(=O)N(C)CC(=O)N[C@@H](CCc3cc(F)c(C(F)(F)F)c(F)c3)C(=O)N2C1 [PP1524] | 439 nM | B (a compound having 3 or more and less than 10 is denoted as B) | B (a compound having 3 or more and less than 10 is denoted as B) |
| CCO[C@@H]1C[C@H]2C(=O)NC3(CCC3)C(=O)N(C)[C@@H](C(CC)CC)C(=O)N(C)[C@H](C)CC(=O)N(C)[C@@H](CC(C)C)C(=O)N[C@@H]([C@@H](C)CC)C(=O)N(C)CC(=O)N(C)[C@H]3C/C=C\CCN(C3=O)[C@@H](Cc3ccc(F)cc3)C(=O)N(C)CC(=O)N[C@@H](CCc3cc(F)c(C(F)(F)F)c(F)c3)C(=O)N2C1 [PP1525] | 132 nM | A (a compound having 10 or more and less than 20 is denoted as A) | A (a compound having 10 or more and less than 20 is denoted as A) |
| CCO[C@@H]1C[C@H]2C(=O)NC3(CCC3)C(=O)N(C)[C@@H](C(CC)CC)C(=O)N(C)[C@H](C(=O)N3CCOCC3)CC(=O)N(C)[C@@H](CC3CC3)C(=O)N[C@@H]([C@@H](C)CC)C(=O)N(C)CC(=O)N(C)[C@H]3C/C=C\CCN(C3=O)[C@@H](Cc3ccc(F)cc3C)C(=O)N(C)CC(=O)N[C@@H](CCc3cc(F)c(C(F)(F)F)c(F)c3)C(=O)N2C1 [PP1526] | 118 nM | A (a compound having 10 or more and less than 20 is denoted as A) | A (a compound having 10 or more and less than 20 is denoted as A) |
| CCO[C@@H]1C[C@H]2C(=O)NC3(CCC3)C(=O)N(C)[C@@H](C(CC)CC)C(=O)N(C)[C@H](C(=O)N3CCOCC3)CC(=O)N(C)[C@@H](CC3CC3)C(=O)N[C@@H]([C@@H](C)CC)C(=O)N(C)CC(=O)N(C)[C@H]3C/C=C\CCN(C3=O)[C@@H](Cc3ccc(F)cc3)C(=O)N(C)CC(=O)N[C@@H](CCc3cc(F)c(C(F)(F)F)c(F)c3)C(=O)N2C1 [PP1527] | 143 nM | A (a compound having 10 or more and less than 20 is denoted as A) | A (a compound having 10 or more and less than 20 is denoted as A) |
| CCO[C@@H]1C[C@H]2C(=O)NC3(CCC3)C(=O)N(C)[C@@H](C3CCCC3)C(=O)N(C)[C@H](C(=O)N(C)C)CC(=O)N(C)[C@@H](CC3CC3)C(=O)N[C@@H]([C@@H](C)CC)C(=O)N(C)CC(=O)N(C)[C@H]3C/C=C\CCN(C3=O)[C@@H](Cc3ccc(F)cc3C)C(=O)N(C)CC(=O)N[C@@H](CCc3cc(F)c(C(F)(F)F)c(F)c3)C(=O)N2C1 [PP1528] | 45.6 nM | A (a compound having 10 or more and less than 20 is denoted as A) | B (a compound having 3 or more and less than 10 is denoted as B) |
| CCO[C@@H]1C[C@H]2C(=O)NC3(CCC3)C(=O)N(C)[C@@H](C3CCCC3)C(=O)N(C)[C@H](C(=O)N(C)C)CC(=O)N(C)[C@@H](CC3CCCC3)C(=O)N[C@@H]([C@@H](C)CC)C(=O)N(C)CC(=O)N(C)[C@H]3C/C=C\CCN(C3=O)[C@@H](Cc3ccc(F)cc3C)C(=O)N(C)CC(=O)N[C@@H](CCc3cc(F)c(C(F)(F)F)c(F)c3)C(=O)N2C1 [PP1530] | 17.2 nM | A (a compound having 10 or more and less than 20 is denoted as A) | B (a compound having 3 or more and less than 10 is denoted as B) |

Molecules with a lower IC50 [3], results first:

| IC50 [3] | SMILES | NRAS/KRAS (ratio of KD value for GDP-bound NRAS wild-type protein to KD value for KRAS) [1] | HRAS/KRAS (ratio of KD value for GDP-bound HRAS wild-type protein to KD value for KRAS) [2] |
| --- | --- | --- | --- |
| 13.4 nM | CCO[C@@H]1C[C@H]2C(=O)NC3(CCC3)C(=O)N(C)[C@@H](C3CCCC3)C(=O)N(C)[C@H](C(=O)N(C)C)CC(=O)N(C)[C@@H](CC(C)C)C(=O)N[C@@H]([C@@H](C)CC)C(=O)N(C)CC(=O)N(C)[C@H]3C/C=C\CCN(C3=O)[C@@H](Cc3ccc(F)cc3C)C(=O)N(C)CC(=O)N[C@@H](CCc3cc(F)c(C(F)(F)F)c(F)c3)C(=O)N2C1 [PP1532] | A (a compound having 10 or more and less than 20 is denoted as A) | B (a compound having 3 or more and less than 10 is denoted as B) |
| 3.4 nM | CCCC[C@H]1C(=O)N[C@@H]([C@@H](C)CC)C(=O)N(C)CC(=O)N(C)[C@H]2C/C=C\CCN(C2=O)[C@@H](Cc2ccc(C(F)(F)F)cc2)C(=O)N(C)CC(=O)N[C@@H](CCc2cc(F)c(C(F)(F)F)c(F)c2)C(=O)N2C[C@H](OCC)C[C@H]2C(=O)NC2(CCC2)C(=O)N(C)[C@@H](C2CCCC2)C(=O)N(C)[C@H](C(=O)N(C)CC)CC(=O)N1C [PP1558] | A (a compound having 10 or more and less than 20 is denoted as A) | B (a compound having 3 or more and less than 10 is denoted as B) |
| 1.8 nM | CCO[C@@H]1C[C@H]2C(=O)NC3(CC(C)(C)C3)C(=O)N(C)[C@@H](C3CCCC3)C(=O)N(C)[C@H](C(=O)N(C)C)CC(=O)N(C)[C@@H](CC)C(=O)N[C@@H]([C@@H](C)CC)C(=O)N(C)CC(=O)N(C)[C@H]3C/C=C\CCN(C3=O)[C@@H](Cc3ccc(C(F)(F)F)cc3)C(=O)N(C)CC(=O)N[C@@H](CCc3ccc(C(F)(F)F)c(OC)c3)C(=O)N2C1 [PP1559] | A (a compound having 10 or more and less than 20 is denoted as A) | A (a compound having 10 or more and less than 20 is denoted as A) |
| 1.8 nM | CCC[C@H]1C(=O)N[C@@H]([C@@H](C)CC)C(=O)N(C)CC(=O)N(C)[C@H]2C/C=C\CCN(C2=O)[C@@H](Cc2ccc(C(F)(F)F)cc2)C(=O)N(C)CC(=O)N[C@@H](CCc2ccc(C(F)(F)F)c(OC)c2)C(=O)N2C[C@H](OCC)C[C@H]2C(=O)NC2(CC(C)(C)C2)C(=O)N(C)[C@@H](C2CCCC2)C(=O)N(C)[C@H](C(=O)N(C)C)CC(=O)N1C [PP1560] | A (a compound having 10 or more and less than 20 is denoted as A) | B (a compound having 3 or more and less than 10 is denoted as B) |
| 2.7 nM | CCCC[C@H]1C(=O)N[C@@H]([C@@H](C)CC)C(=O)N(C)CC(=O)N(C)[C@H]2C/C=C\CCN(C2=O)[C@@H](Cc2ccc(C(F)(F)F)cc2)C(=O)N(C)CC(=O)N[C@@H](CCc2ccc(C(F)(F)F)c(OC)c2)C(=O)N2C[C@H](OCC)C[C@H]2C(=O)NC2(CC(C)(C)C2)C(=O)N(C)[C@@H](C2CCCC2)C(=O)N(C)[C@H](C(=O)N(C)C)CC(=O)N1C [PP1561] | A (a compound having 10 or more and less than 20 is denoted as A) | B (a compound having 3 or more and less than 10 is denoted as B) |
